Assay results published in patent US4603209A, “Fluorescent indicator dyes for calcium ions” (priority 1984, dated 1986).
Read-outs that look alike come from different tables or passages of the source.

Columns and labels:
[1] = assay type: binding
Method: (§1) Calcium and magnesium affinities of EGTA at high ionic strength were measured by titrating 125 micromole portions of EGTA (Fluka Chemical, puriss grade) with 1.00M KOH (J.T. Baker, low in carbonate). The EGTA was dissolved in 25 ml medium containing 225 mM KCl, 25 mM NaCl, and in some runs 10 mM CaCl2 or 21 mM MgCl2. This solution was stirred in a Radiometer TTA80 Titrator, bubbled continuously with nitrogen, and thermostatted at 18° C. while KOH was added in 0.005 or 0.01 ml aliquots from a ABU80autoburet. The pH was measured with a PHM84 meter, a G2040C electrode and an Ag/AgCl reference electrode connected to the titration solution by a long length of 0.01 inch catheter tubing filled with 3M KCl; this electrode chain was calibrated with phthalate (4.001), phosphate (6.889), and borax (9.245) buffers made according to National Bureau of Standards recipes. The fifty to eighty pH readings in each titration were analyzed by the FORTRAN program SCOGS of Sayce (see reference 36). The resulting proton ionization constants for EGTA were 9.537 and 8.961 with computed uncertainties of ±0.012 and ±0.008 respectively. […] At this ionic strength and any pH>4, the effective stability constant K'Ca may be calculated as (antilog 10.77)·[1 +antilog (3.51-pH)]/[1+antilog (9.537-pH)+antilog (9.537+8.961-2·pH)]in units of liters/mole. […]

[2] = read-out: apparent dissociation constant for Mg-EGTA, cited from earlier work
[3] = cited from earlier work
[4] = reference 11; cited from earlier work
[5] = calculated from tables of Martell & Smith, read-out: apparent dissociation constant for Ca-EGTA, cited from earlier work
[6] = reference 11; cited from earlier work; remark: listed apart in the source
[7] = assay type: binding; remark: listed apart in the source
Method: as §1

- proton pKa for Mg.EGTA ([1]; 225 mm kcl, 25 mm nacl): 7.885±0.05
- Kd ([1]; pH 7.02 in 225 mM KCl, 25 mM NaCl at 18°, freshly determined, read-out: apparent dissociation constant for Mg-EGTA): 99000 µM
- proton pKa for Ca.EGTA ([7]; 225 mm kcl, 25 mm nacl): 3.51±0.49
- Kd ([7]; pH 7.02 in 225 mM KCl, 25 mM NaCl at 18° C., freshly determined, read-out: apparent dissociation constant for Ca-EGTA): 0.49 µM
Structure (SMILES): O=C(O)CN(CCOCCOCCN(CC(=O)O)CC(=O)O)CC(=O)O [EGTA, ethylene glycol bis(beta-aminoethyl ether)-N,N,N',N'-tetracetic acid]
- Kd ([2]; pH 7.05 in 130 mM KCl, 20 mM NaCl at 37°): 8960 µM
- Kd ([2]; pH 7.18 in 130 mM KCl at 20°): 21000 µM
- Kd ([3]; pH 7.11, reference 11, read-out: effective dissociation constant of EGTA for Zn^2+): 0.00427 µM
- preference for Zn^2+ over Ca^2+ ([3]; reference 11): ca. 50 fold
- preference for Mn^2+ over Ca^2+ [4]: ca. 20 fold
- Kd ([5]; pH 7.00 in 0.1M KCl, 20° C.): 0.38 µM
- Kd ([5]; pH 7.05 in 130 mM KCl, 20 mM NaCl at 37° C.): 0.214 µM
- Kd ([5]; pH 7.20 in 0.1M KCl, 20° C.): 0.151 µM
- preference for Fe^2+ over Ca^2+ [6]: ca. 8 fold
